Laboratory results from patent US20230147942A1, “PHARMACEUTICAL COMPOSITION COMPRISING NEW LACTOBACILLUS PLANTARUM KC3 STRAIN AND LEONURUS JAPONICUS EXTRACT AS ACTIVE INGREDIENTS FOR PREVENTING OR TREATING RESPIRATORY DISEASE AND USE THEREOF” (KT&G CORPORATION, priority 2020, published 2023).

Tests used:
[1] = tested on: total number of cells in BAL fluid; test: Total number of cells in BAL fluid, mouse model having respiratory damage caused by air pollutants; assay type: in vivo
Procedure: (§1) BALB/c male mice (7-week-old, 20 g to 25 g, Orient Bio) were divided into groups of 6 mice, and as assigned to 6 mice in each group, and Alum was diluted in components of air pollutants, i.e., 10 mg/ml of coal combustible materials, 10 mg/ml of fly ash, and 5 mg/ml of diesel exhaust particle (DEP) to have a final concentration of 1% so that a final concentration of each component was 1.5 mg/ml for coal combustible material/fly ash and 5 mg/ml for DEP in a mixture. Then, to all groups except for a normal group, the mixture was directly injected into the airway and nose of the experimental animals by 50 pl each on the 4th, 7th and 10th says of the experiment.
(§2) For a positive control group treated with dexamethasone (Sigma D2915), administed at 3 mg/kg BW of the mouse model, the Lactobacillus plantarum KC3 strain (KC3) was diluted at a concentration of 1×10^9CFU/cell (about 2 mg/kg BW), the Leonurus japonicus extract was diluted in distilled water at a dose of 100 mg/kg of BW, and then orally administered at a dose of 300 pl every day (for 11 days). […]

[2] = tested on: neutrophils; test: Ratio of number of neutrophils to total number of cells in BAL fluid (Diff-Qick staining); assay type: in vivo, mouse
Procedure: as §1, §2

[3] = tested on: CXCL-1; test: Expression level of inflammation factor in BAL fluid (ELISA); assay type: in vivo, mouse
Procedure: as §1
(§3) For a positive control group treated with dexamethasone (Sigma D2915), administed at 3 mg/kg BW of the mouse model, the Lactobacillus plantarum KC3 strain (KC3) was diluted at a concentration of 1×10^9CFU/cell (about 2 mg/kg BW), the Leonurus japonicus extract was diluted in distilled water at a dose of 100 mg/kg of BW, and then orally administered at a dose of 300 pl every day (for 11 days). For a mixed group including the KC3 strain and the Leonurus japonicus extract, the solution was mixed and diluted at a ratio of 1:1 by the dry weight as in Examples above, and then orally administered at a dose of 300 pl every day (for 11 days) (the cell amount in the KC3 included in the mixture was 0.5×10^9 CFU/cell, and the dose of the Leonurus japonicus extract was set at 50 mg/kg BW). The oral administration was performed at a dose of 300 μl per mouse, and an autopsy was performed on the 12th day after the start of the experiment to recover the BAL solution.
(§4) An experiment was carried out to confirm whether the expression level of inflammation factors in the BAL fluid can be lowered, when treated with the Lactobacillus plantarum KC3 strain, the Leonurus japonicus extract, or the mixture thereof.
(§5) The experiment was carried out in the same manner as in Experimental Example 1-3, except that the number of cells in BAL fluid was measured. Instead of measuring the number of cells, ELISA was performed to measure the expression level of respiratory inflammation factors, such as IL-17A, TNF-α, and CXCL-1, expressed in BAL fluid. In detail, IL-17A antibodies (M1700, R&D Systems, Minneapolis, USA), TNF-α antibodies (MTA00B, R&D Systems, Minneapolis, USA), and CXCL-1 antibodies (MKCOOB, R&D Systems, Minneapolis, USA) were diluted with a buffer solution, coated microwells, and then cultured at 4° C. for 16 hours. Each well was washed with a buffer solution three times, and 10-fold diluted serum was dispensed at 100 μl per well. After being left at room temperature for 1 hour, the wells were washed twice. Then, 100 μl of Avidin-HRP-conjugated antibodies (DY007, R&D Systems, Minneapolis, USA) was treated thereon, and the wells were left again at room temperature for 1 hour, followed by washing again.
(§6) Tetramethylbenzidine (TMB) base solution (DY007, R&D Systems, Minneapolis, USA) was dispensed at 100 μl per well, and the well plate was left in the dark for 30 minutes. After 50 μl of a stopping solution (DY007, R&D Systems, Minneapolis, USA) was treated thereon, absorbance of the cells was measured at 450 nm.

[4] = tested on: IL-17A; test: as above; assay type: in vivo, mouse
Procedure: as §1, §3, §4, §5, §6

[5] = tested on: TNF-α; test: as above; assay type: in vivo, mouse
Procedure: as §1, §3, §4, §5, §6

[6] = tested on: symmetric dimethylarginine (SDMA); test: Measurement of SDMA as COPD biomarker in blood (ELISA); assay type: in vivo, mouse
Procedure: as §1, §2
After being left at room temperature for 1 hour, the wells were washed twice. […] After 50 μl of a stopping solution (DY007, R&D Systems, Minneapolis, USA) was treated thereon, absorbance of the cells was measured at 450 nm. […]

[7] = BALB/c mice, air pollutant-induced, oral daily 11 days, BAL day 12, dexamethasone 3 mg/kg, KC3 1×10^9 CFU, Leo 100 mg/kg, mixture 0.5×10^9 CFU + 50 mg/kg
[8] = BALB/c mice, air pollutant-induced, oral daily 11 days, dexamethasone 3 mg/kg, KC3 1×10^9 CFU, Leo 100 mg/kg, mixture 0.5×10^9 CFU + 50 mg/kg

For `C[C@@H]1C[C@H]2[C@@H]3CCC4=CC(=O)C=C[C@]4(C)[C@@]3(F)[C@@H](O)C[C@]2(C)[C@@]1(O)C(=O)CO` [Positive control group, dexamethasone], the “Total number of BAL cells (×10^4 cells/ml)” value [1, 7] was 71.2 ± 8.3 ×10^4 cells/ml, the “Inhibition rate (based on induced group), total BAL cells” value ([1]; same dosing as total BAL cells, based on induced group) was 54% and the “Ratio of number of neutrophils to total number of BAL cells (400X)” value [2, 7] was 35.5 ± 6.1. The “Inhibition rate (based on induced group), neutrophil ratio” value ([2]; same dosing, based on induced group) was 50%, the “CXCL-1 Concentration” value [3, 8] was 122 ± 12.4 pg/mL and the “CXCL-1 inhibition rate (%) based on induced group” value ([3]; same dosing) was “(39%)”. For the same molecule, the “IL-17A Concentration” value [4, 8] was 19.7 ± 6.3 pg/mL, the “IL-17A inhibition rate (%) based on induced group” value ([4]; same dosing) was “(41%)” and the “TNF-α Concentration” value [5, 8] was 64.5 ± 7.7 pg/mL. The “TNF-α inhibition rate (%) based on induced group” value ([5]; same dosing) was “(46%)”, the “SDMA level (μg/mL) in serum” value [6, 8] was 10.1 ± 1.9 µg/mL and the “Inhibition rate (based on induced group), SDMA” value ([6]; serum, same dosing) was 41%.
